{"source": "patent US20080261936A1", "about": "“METHODS OF REDUCING THE BODY WEIGHT OF A SUBJECT BY ADMINISTERING A FATTY ACID ESTER OF AN ESTROGEN OR ESTROGEN DERIVATIVE IN AN OIL AND COMPOSITIONS CONTAINING THE SAME” (Manhattan Pharmaceuticals, Inc., priority 2006, published 2008)", "experiment": "Oil evaluation: solubility behavior of oleoyl-estrone, 60 mg/g in single oils", "type": "physicochemical", "settings": "for solubility at 96 h: oil or lipid, after 96 hr, more oil added", "experimental": "An oil evaluation was done to determine the solubility behavior of oleoyl-estrone as a function of type of oil, concentration and temperature. The solubility of oleoyl-estrone was evaluated at concentrations of 60 mg/g and 200 mg/g. […]", "key": {"[1]": {"settings": "60 mg/g in Canola at RT (about 22° C.)"}, "[2]": {"settings": "60 mg/g in Captex 300-6C at RT (about 22° C.)"}, "[3]": {"settings": "60 mg/g in Captex 300 EP at RT (about 22° C.)"}, "[4]": {"settings": "60 mg/g in Corn at RT (about 22° C.)"}, "[5]": {"settings": "60 mg/g in Labrafac at RT (about 22° C.)"}, "[6]": {"settings": "60 mg/g in Labrasol at RT (about 22° C.)"}, "[7]": {"settings": "60 mg/g in Olive at RT (about 22° C.)"}, "[8]": {"settings": "60 mg/g in Safflower at RT (about 22° C.)"}, "[9]": {"settings": "60 mg/g in Sesame at RT (about 22° C.)"}, "[10]": {"settings": "60 mg/g in Soybean at RT (about 22° C.)"}}, "data": [{"smiles": "CCCCCCCC/C=C\\CCCCCCCC(=O)Oc1ccc2c(c1)CC[C@@H]1[C@@H]2CC[C@]2(C)C(=O)CC[C@@H]12", "note": "[oleoyl-estrone, [3(Z)]-3-[(1-oxo-9-octadecenyl)oxy]-estra-1,3,5(10)-trien-17-one]", "values": [{"measurement": "Solubility Cycled to 5° C. after 96 hr", "setting": "60 mg/g in Canola", "value": "Dissolved"}, {"measurement": "Solubility After 24 hr", "setting": "[1]", "value": "Dissolved"}, {"measurement": "Solubility After 96 hr", "setting": "[1]", "value": "Dissolved"}, {"measurement": "Solubility Cycled to 5° C. after 96 hr", "setting": "60 mg/g in Captex 300-6C", "value": "Dissolved"}, {"measurement": "Solubility After 24 hr", "setting": "[2]", "value": "Dissolved"}, {"measurement": "Solubility After 96 hr", "setting": "[2]", "value": "Dissolved"}, {"measurement": "Solubility Cycled to 5° C. after 96 hr", "setting": "60 mg/g in Captex 300 EP", "value": "Dissolved"}, {"measurement": "Solubility After 24 hr", "setting": "[3]", "value": "Dissolved"}, {"measurement": "Solubility After 96 hr", "setting": "[3]", "value": "Dissolved"}, {"measurement": "Solubility Cycled to 5° C. after 96 hr", "setting": "60 mg/g in Corn", "value": "Dissolved"}, {"measurement": "Solubility After 24 hr", "setting": "[4]", "value": "Dissolved"}, {"measurement": "Solubility After 96 hr", "setting": "[4]", "value": "Dissolved"}, {"measurement": "Solubility Cycled to 5° C. after 96 hr", "setting": "60 mg/g in Labrafac", "value": "Dissolved"}, {"measurement": "Solubility After 24 hr", "setting": "[5]", "value": "Dissolved"}, {"measurement": "Solubility After 96 hr", "setting": "[5]", "value": "Dissolved"}, {"measurement": "Solubility Cycled to 5° C. after 96 hr", "setting": "60 mg/g in Labrafil 1944 CS", "value": "Dissolved"}, {"measurement": "Solubility After 96 hr", "setting": "60 mg/g in Labrafil 1944 CS at RT (about 22° C.)", "value": "NOT Dissolved more oil"}, {"measurement": "Solubility Cycled to 5° C. after 96 hr", "setting": "60 mg/g in Labrafil M 125CS", "value": "Dissolved"}, {"measurement": "Solubility After 96 hr", "setting": "60 mg/g in Labrafil M 125CS at RT (about 22° C.)", "value": "NOT Dissolved more oil"}, {"measurement": "Solubility After 24 hr", "setting": "[6]", "value": "Dissolved"}, {"measurement": "Solubility After 96 hr", "setting": "[6]", "value": "Dissolved"}, {"measurement": "Solubility Cycled to 5° C. after 96 hr", "setting": "60 mg/g in Olive", "value": "Dissolved"}, {"measurement": "Solubility After 24 hr", "setting": "[7]", "value": "Dissolved"}, {"measurement": "Solubility After 96 hr", "setting": "[7]", "value": "Dissolved"}, {"measurement": "Solubility Cycled to 5° C. after 96 hr", "setting": "60 mg/g in Safflower", "value": "Dissolved"}, {"measurement": "Solubility After 24 hr", "setting": "[8]", "value": "Dissolved"}, {"measurement": "Solubility After 96 hr", "setting": "[8]", "value": "Dissolved"}, {"measurement": "Solubility Cycled to 5° C. after 96 hr", "setting": "60 mg/g in Sesame", "value": "Dissolved"}, {"measurement": "Solubility After 24 hr", "setting": "[9]", "value": "Dissolved"}, {"measurement": "Solubility After 96 hr", "setting": "[9]", "value": "Dissolved"}, {"measurement": "Solubility Cycled to 5° C. after 96 hr", "setting": "60 mg/g in Soybean", "value": "Dissolved"}, {"measurement": "Solubility After 24 hr", "setting": "[10]", "value": "Dissolved"}, {"measurement": "Solubility After 96 hr", "setting": "[10]", "value": "Dissolved"}, {"measurement": "solubility at 96 h", "setting": "Labrafil 1944 CS (oil), in Labrafil 1944 CS at RT (about 22° C.)", "value": "~5000", "unit": "µg/mL"}, {"measurement": "solubility at 96 h", "setting": "Labrafil M 125CS (oil), in Labrafil M 125CS at RT (about 22° C.)", "value": "≤ 3000", "unit": "µg/mL"}]}]}
